Measured values as given in PMC8634379, “From the Design to the In Vivo Evaluation of Benzohomoadamantane-Derived Soluble Epoxide Hydrolase Inhibitors for the Treatment of Acute Pancreatitis” (Journal of Medicinal Chemistry, 2021).

How the values were obtained:
[1] = biological target: T1, hERG potassium channel (Homo sapiens, UniProt Q12809); experiment: hERG inhibition assay (Fluxor potassium ion channel kit, transfected CHO cells); format: cell-based; details: at 10 μM
T1 construct: expressed in transfected cells; host or cells: CHO
T1 sequence (Q12809 whole entry): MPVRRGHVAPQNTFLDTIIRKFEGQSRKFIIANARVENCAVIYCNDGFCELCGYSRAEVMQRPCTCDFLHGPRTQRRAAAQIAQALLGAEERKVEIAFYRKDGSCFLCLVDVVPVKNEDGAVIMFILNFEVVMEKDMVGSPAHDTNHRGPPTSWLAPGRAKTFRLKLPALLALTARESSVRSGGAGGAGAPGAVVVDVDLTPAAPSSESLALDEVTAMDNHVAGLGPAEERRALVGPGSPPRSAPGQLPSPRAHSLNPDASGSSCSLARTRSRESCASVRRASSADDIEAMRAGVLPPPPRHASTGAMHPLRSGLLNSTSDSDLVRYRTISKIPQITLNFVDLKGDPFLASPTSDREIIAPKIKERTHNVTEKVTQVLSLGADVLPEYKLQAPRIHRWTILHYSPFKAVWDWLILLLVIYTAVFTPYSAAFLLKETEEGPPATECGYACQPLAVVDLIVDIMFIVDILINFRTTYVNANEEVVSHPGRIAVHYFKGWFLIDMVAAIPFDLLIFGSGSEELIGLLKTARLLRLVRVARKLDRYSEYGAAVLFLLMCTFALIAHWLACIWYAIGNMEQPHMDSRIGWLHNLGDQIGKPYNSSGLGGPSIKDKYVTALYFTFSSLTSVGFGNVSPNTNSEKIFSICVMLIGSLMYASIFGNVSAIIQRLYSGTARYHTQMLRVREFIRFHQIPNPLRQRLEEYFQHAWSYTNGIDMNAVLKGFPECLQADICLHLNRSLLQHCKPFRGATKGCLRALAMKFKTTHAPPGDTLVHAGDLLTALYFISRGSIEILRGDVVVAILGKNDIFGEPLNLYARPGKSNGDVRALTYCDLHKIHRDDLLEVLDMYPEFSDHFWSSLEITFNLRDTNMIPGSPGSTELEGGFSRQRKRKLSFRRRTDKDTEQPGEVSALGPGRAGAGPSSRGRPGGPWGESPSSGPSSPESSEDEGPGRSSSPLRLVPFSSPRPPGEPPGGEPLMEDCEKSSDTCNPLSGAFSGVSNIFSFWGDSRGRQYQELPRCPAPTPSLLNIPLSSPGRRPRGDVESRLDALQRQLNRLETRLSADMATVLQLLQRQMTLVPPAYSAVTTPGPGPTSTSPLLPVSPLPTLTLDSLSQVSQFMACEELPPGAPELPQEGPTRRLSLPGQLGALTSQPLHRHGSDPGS
Description: The assay was carried out at a CHO cell line transfected with the hERG potassium channel. 72 h before the assay, 2500 cells were seeded on a 384-well black plate (Greiner 781091). The cell line was maintained at 37 °C in a 5% CO2 atmosphere for 24 h and at 30 °C in a 5% CO2 atmosphere for 48 h plus. hERG activity was measured by using the FluxorTM Potassium Ion Chanel Assay Kit (Thermo Fisher F10016). Medium was replaced for 20 μL of loading buffer and the cells were incubated for 60 min at RT, protected from direct light. After incubation, the loading buffer was replaced for the assay buffer and the compounds were incubated for 30 min at RT. 5 μL of a stimulus buffer was added to each well and the fluorescence was read (λex = 490 nm, λem = 525 nm) using an imaging plate reader system (FDSS7000EX, Hamamatsu) every second after the establishment of a baseline line.

[2] = biological target: T2, CYP 1A2 (Homo sapiens, UniProt P05177); experiment: Cytochrome P450 inhibition, fluorescence detection; format: in vitro ADME; details: at 10 μM
T2 sequence (P05177 1-516): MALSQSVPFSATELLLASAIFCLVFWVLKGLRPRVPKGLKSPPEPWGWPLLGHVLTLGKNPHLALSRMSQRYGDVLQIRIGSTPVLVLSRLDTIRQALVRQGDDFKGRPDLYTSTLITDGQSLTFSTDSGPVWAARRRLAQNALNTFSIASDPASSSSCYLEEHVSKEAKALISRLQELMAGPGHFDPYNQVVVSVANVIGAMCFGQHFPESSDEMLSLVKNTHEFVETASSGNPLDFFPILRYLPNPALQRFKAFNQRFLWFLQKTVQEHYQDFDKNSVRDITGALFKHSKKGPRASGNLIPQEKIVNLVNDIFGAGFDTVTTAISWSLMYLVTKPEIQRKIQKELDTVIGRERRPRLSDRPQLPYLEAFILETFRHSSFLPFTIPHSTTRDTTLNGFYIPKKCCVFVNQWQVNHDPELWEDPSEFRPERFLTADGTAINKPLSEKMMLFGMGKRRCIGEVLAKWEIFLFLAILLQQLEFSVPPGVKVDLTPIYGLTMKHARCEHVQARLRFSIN

[3] = biological target: T3, rat sEH (Rattus norvegicus, UniProt P80299); experiment: sEH inhibition, fluorescent-based assay (CMNPC substrate); format: biochemical; details: purified recombinant enzyme, average of three replicates
T3 sequence (P80299 1-554): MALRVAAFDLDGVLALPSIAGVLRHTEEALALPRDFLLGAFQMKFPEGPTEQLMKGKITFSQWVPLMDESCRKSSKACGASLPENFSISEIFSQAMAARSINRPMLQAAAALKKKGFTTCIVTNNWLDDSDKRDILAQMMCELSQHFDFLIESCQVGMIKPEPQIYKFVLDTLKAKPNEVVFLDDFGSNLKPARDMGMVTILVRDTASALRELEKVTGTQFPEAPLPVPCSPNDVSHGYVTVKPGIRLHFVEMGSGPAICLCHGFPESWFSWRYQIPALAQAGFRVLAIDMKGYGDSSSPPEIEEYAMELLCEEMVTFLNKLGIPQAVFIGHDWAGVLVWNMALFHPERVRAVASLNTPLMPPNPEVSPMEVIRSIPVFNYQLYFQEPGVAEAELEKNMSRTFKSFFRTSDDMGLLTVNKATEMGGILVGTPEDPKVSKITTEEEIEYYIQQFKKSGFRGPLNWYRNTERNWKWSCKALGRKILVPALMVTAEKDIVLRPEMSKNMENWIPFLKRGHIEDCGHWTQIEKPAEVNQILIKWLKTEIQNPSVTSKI
Description: (§1) The IC50 values reported herein were determined using a fluorescent-based assay (CMNPC as substrate).[16] The fluorescent assay was used with purified recombinant human, mouse, or rat sEH proteins. The enzymes were incubated at 30 °C with the inhibitors ([I]final = 0.4–100,000 nM) for 5 min in 100 mM sodium phosphate buffer (200 μL, pH 7.4) containing 0.1 mg/mL of BSA and 1% of DMSO. The substrate (CMNPC) was then added ([S]final = 5 μM). […] Results were obtained by regression analysis from a linear region of the curve.

[4] = biological target: T4, murine sEH (Mus musculus, UniProt P34914); experiment: as above; format: biochemical; details: purified recombinant enzyme, average of three replicates
T4 sequence (P34914 1-554): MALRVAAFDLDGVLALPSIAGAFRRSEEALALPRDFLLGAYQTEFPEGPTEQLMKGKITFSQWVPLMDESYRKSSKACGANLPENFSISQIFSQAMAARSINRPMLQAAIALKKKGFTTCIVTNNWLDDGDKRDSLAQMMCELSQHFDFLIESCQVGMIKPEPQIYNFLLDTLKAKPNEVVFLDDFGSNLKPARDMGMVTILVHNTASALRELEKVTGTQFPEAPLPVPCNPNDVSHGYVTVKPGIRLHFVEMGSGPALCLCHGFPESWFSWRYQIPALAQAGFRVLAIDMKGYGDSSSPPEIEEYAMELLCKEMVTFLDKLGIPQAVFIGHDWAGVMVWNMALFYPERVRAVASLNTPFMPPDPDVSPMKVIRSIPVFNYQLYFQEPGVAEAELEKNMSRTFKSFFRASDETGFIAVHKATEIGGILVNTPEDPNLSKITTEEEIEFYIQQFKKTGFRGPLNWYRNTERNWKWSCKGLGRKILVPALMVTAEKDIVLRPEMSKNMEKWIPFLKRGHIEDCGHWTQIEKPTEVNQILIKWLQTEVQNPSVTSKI
Description: as §1

[5] = biological target: T5, human sEH (hsEH) (Homo sapiens, UniProt P34913); experiment: as above; format: biochemical; details: purified recombinant enzyme, average of three replicates
T5 sequence (P34913 1-555): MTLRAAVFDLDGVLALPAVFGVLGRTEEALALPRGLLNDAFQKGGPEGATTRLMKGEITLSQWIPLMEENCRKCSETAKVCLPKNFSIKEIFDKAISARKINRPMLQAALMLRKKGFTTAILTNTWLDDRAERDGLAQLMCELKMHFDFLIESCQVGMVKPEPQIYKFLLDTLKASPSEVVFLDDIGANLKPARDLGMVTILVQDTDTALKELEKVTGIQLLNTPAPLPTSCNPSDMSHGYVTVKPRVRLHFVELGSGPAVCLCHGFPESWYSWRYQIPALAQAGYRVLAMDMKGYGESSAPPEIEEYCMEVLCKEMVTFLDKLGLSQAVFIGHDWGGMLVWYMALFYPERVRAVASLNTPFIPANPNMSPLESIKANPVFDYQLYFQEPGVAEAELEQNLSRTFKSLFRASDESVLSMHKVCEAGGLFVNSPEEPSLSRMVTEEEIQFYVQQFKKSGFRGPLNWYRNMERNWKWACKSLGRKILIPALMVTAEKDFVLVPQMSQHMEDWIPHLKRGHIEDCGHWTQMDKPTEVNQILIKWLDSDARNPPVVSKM
Description: as §1

IC50 [3] [nM]	IC50 [4] [nM]	IC50 [5] [nM]	SMILES	hERG channel inhibition [1] [%]	CYP 1A2 inhibition [2] [%]
0.4	9.9	0.9	CC12CC3CC(NC(=O)N[C@H]4CC[C@H](Oc5ccc(C(=O)O)cc5)CC4)(CC(C1)c1ccccc13)C2 [Compound 20, 4-[((1r,4r)-4-(3-(9-Methyl-5,6,8,9,10,11-Hexahydro-7H-5,9:7,11-dimethanobenzo[9]annulen-7-yl)ureido)cyclohexyl)oxy]benzoic Acid]	4	1 ± 2
			O=C(NC12CC3CC(Cl)(CC(C1)c1ccccc13)C2)N[C@H]1CC[C@H](Oc2ccc(C(=O)O)cc2)CC1 [Compound 22, 4-[((1r,4r)-4-(3-(9-Chloro-5,6,8,9,10,11-hexahydro-7H-5,9:7,11-dimethanobenzo[9]annulen-7-yl)ureido)cyclohexyl)oxy]benzoic Acid]	44	14 ± 4
0.4	0.5	0.5	O=C(NC12CC3CC(F)(CC(C1)c1ccccc13)C2)N[C@H]1CC[C@H](Oc2ccc(C(=O)O)cc2)CC1 [Compound 23, 4-[((1r,4r)-4-(3-(9-Fluoro-5,6,8,9,10,11-hexahydro-7H-5,9:7,11-dimethanobenzo[9]annulen-7-yl)ureido)cyclohexyl)oxy]benzoic Acid]		
